In PubChem BioAssay AID1845199 (Molecular Pharmacology Branch, DTP, NCI, 2023):
“And” between values parts separate entries of the source, which are not always exact repeats. Identical values can stand only once.

Tested on: 556581-035-R-J1 tumor spheroid viability, % test/control
Experiment: Anticancer human tumor 556581-035-R-J1 patient-derived ovarian carcinoma cell line growth inhibition
Settings: spheroids with HUVEC and MSC; for viability, T/C: stronger effect = lower value
Text: Multicellular complex tumor spheroid response to DNA repair inhibitors in combination with DNA-damaging drugs
This study explores the anticancer activities of DNA-damaging drugs and inhibitors of DNA damage repair, both as single agents and in combinations. Complex tumor spheroids comprised of malignant cells, endothelial cells and mesenchymal stem cells served as an in vitro model for human solid tumors. This model system incorporates physiologically relevant features and patient-derived or established malignant cell lines with clinically relevant genetic alterations from many tumor types. Twenty-six patient-derived or established malignant cell lines were evaluated representing sarcoma, melanoma, small cell lung cancer (SCLC), non-small cell lung cancer (NSCLC), as well as bladder, ovarian and pancreatic cancers. The concentration ranges selected for each drug and investigational agent were based upon clinically achievable concentrations if the clinical Cmax of the agent was known.
Compounds. The drugs and compounds olaparib (NSC753686), talazoparib (NSC767125), berzosertib (NSC777718), elimusertib (NSC800525), nedisertib (NSC802822), VX-984 (NSC792969), AZD-1390 (NSC803789), temozolomide (NSC362856), topotecan (NSC609699), trabectedin (NSC813783), staurosporine (NSC755774), and gemcitabine (NSC613327) were obtained from the National Cancer Institute (NCI) Developmental Therapeutics Program Chemical Repository. The FDA-approved anticancer drug set is available from the Developmental Therapeutics Program at https://dtp.cancer.gov/organization/dscb/obtaining/available_plates.htm. […] The stock solutions were prepared in dimethyl sulfoxide (DMSO, Sigma-Aldrich, St. Louis, MO, cat. D2650) at 400-fold the tested concentration and stored at -70 degrees C. Prior to their use, the stock solutions were diluted in fresh medium and the final DMSO concentration in the assay was 0.25% (v/v). All drugs and investigational agents were tested over a range starting from a high concentration at or near the clinical Cmax and decreasing in half-log increments. If the clinical Cmax for an agent had not been determined, the highest concentration tested was 10 microM.
Cell Lines. The patient-derived cancer cell (PDC) lines: 156681-154-R-J1-PDC, 283228-195-R-J1-PDC, 287954-098-R-J1-PDC, 292921-168-R-J2-PDC, 349418-098-R-PDC, 425362-245-T-J1-PDC, 556581-035-R-J1-PDC, and BL0293-F563-PDC were received from the NCI Patient-Derived Models Repository (PDMR, https://pdmr.cancer.gov). The established cell lines HS-SY-2 (RRID:CVCL_8719), MPNST, and SYO-1 (RRID:CVCL_7146) were obtained from the Sloan Kettering Institute. The alveolar soft parts sarcoma cell line ASPS-1 (RRID:CVCL_S738) was established at the NCI and grown from internal seed stocks. The following established cell lines were purchased from the American Type Culture Collection (ATCC, Manassas, VA): G-401 (ATCC, cat. CRL-1441, RRID:CVCL_0270), SW982 (ATCC, cat. HTB-93, RRID:CVCL_1734), VA-ES-BJ (ATCC, cat. CRL-2138, RRID:CVCL_1785), NCI-H719 (ATCC, cat. CRL-5837, RRID:CVCL_1582), NCI-H196 (ATCC, cat. CRL-5823, RRID:CVCL_1509), NCI-H841 (ATCC, cat. CRL-5845, RRID:CVCL_1595), NCI-H1618 (ATCC, cat. CRL-5879, RRID:CVCL_1480), NCI-H1876 (ATCC, cat. CRL-5902, RRID:CVCL_1503), DMS 114 (ATCC, cat. CRL-2066; RRID:CVCL_1174), NCI-H211 (ATCC, cat. CRL-5824; RRID:CVCL_1529), and SW 1271 (ATCC, cat. CRL-2177, RRID:CVCL_1716). The small cell lung cancer cell line COR-L88 was purchased from Sigma-Aldrich (cat. 92031917-1VL, RRID:CVCL_1141). The non-small cell lung cancer cell lines NCI-H226 (RRID:CVCL_1544) and NCI-H322M (RRID:CVCL_1557) were established at the NCI and grown from internal seed stocks. Pooled donor human umbilical vein endothelial cells (HUVEC, Lonza, cat. CC-2519) and human mesenchymal stem cells (hMSC, Lonza, cat. PT-2501) were purchased from Lonza (Walkersville, MD).
Cell Culture. All cells were maintained in an incubator at 37 degrees C and 5% CO2 with 95% humidity. […]
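Note: spheroids exposed to compounds for 7 days before viability read.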

SMILES: [2H]c1nc(C)nc([2H])c1-c1cc(NC[C@@H](C)c2cccc3c(C(=O)NC)ccnc23)ncn1
- viability, T/C (compound 0.0316 µM): 112% and 111% and 102%
- viability, T/C (compound 0.1 µM): 111% and 107% (2×)
- viability, T/C (compound 0.316 µM): 108% and 109% and 110%
- viability, T/C (compound 1 µM): 113% and 105% and 101%
- viability, T/C (compound 3.16 µM): 116% and 106% and 105%
- viability, T/C (compound 10 µM): 115% and 111% and 105%
- IC50 (curve of compound): > 10000 nM

SMILES: COc1ccc([C@@H](O)c2cc(-c3ncnc4cc(N5CCOCC5)ccc34)c(F)cc2Cl)nn1 + Cn1nnc2c(C(N)=O)ncn2c1=O
- IC50 (curve of first compound, second compound 1 µM): 2650 nM
- IC50 (curve of first compound, second compound 3.16 µM): 2550 nM
- IC50 (curve of first compound, second compound 10 µM): 3060 nM
- IC50 (curve of first compound, second compound 31.6 µM): 2810 nM
- IC50 (curve of first compound, second compound 100 µM): 3030 nM
- viability, T/C (second compound 1 µM, first compound 0.0316 µM): 115%
- viability, T/C (second compound 1 µM, first compound 0.1 µM): 111%
- viability, T/C (second compound 1 µM, first compound 0.316 µM): 100%
- viability, T/C (second compound 1 µM, first compound 1 µM): 70.2%
- viability, T/C (second compound 1 µM, first compound 3.16 µM): 47.7%
- viability, T/C (second compound 1 µM, first compound 10 µM): 34.2%
- viability, T/C (second compound 3.16 µM, first compound 0.0316 µM): 105%
- viability, T/C (second compound 3.16 µM, first compound 0.1 µM): 114%
- viability, T/C (second compound 3.16 µM, first compound 0.316 µM): 102%
- viability, T/C (second compound 3.16 µM, first compound 1 µM): 71%
- viability, T/C (second compound 3.16 µM, first compound 3.16 µM): 47.4%
- viability, T/C (second compound 3.16 µM, first compound 10 µM): 36.2%
- viability, T/C (second compound 10 µM, first compound 0.0316 µM): 126%
- viability, T/C (second compound 10 µM, first compound 0.1 µM): 121%
- viability, T/C (second compound 10 µM, first compound 0.316 µM): 113%
- viability, T/C (second compound 10 µM, first compound 1 µM): 76%
- viability, T/C (second compound 10 µM, first compound 3.16 µM): 51.9%
- viability, T/C (second compound 10 µM, first compound 10 µM): 38.2%
- viability, T/C (second compound 31.6 µM, first compound 0.0316 µM): 125%
- viability, T/C (second compound 31.6 µM, first compound 0.1 µM): 123%
- viability, T/C (second compound 31.6 µM, first compound 0.316 µM): 114%
- viability, T/C (second compound 31.6 µM, first compound 1 µM): 76.9%
- viability, T/C (second compound 31.6 µM, first compound 3.16 µM): 48.5%
- viability, T/C (second compound 31.6 µM, first compound 10 µM): 36.2%
- viability, T/C (second compound 100 µM, first compound 0.0316 µM): 129%
- viability, T/C (second compound 100 µM, first compound 0.1 µM): 122%
- viability, T/C (second compound 100 µM, first compound 0.316 µM): 117%
- viability, T/C (second compound 100 µM, first compound 1 µM): 76.8%
- viability, T/C (second compound 100 µM, first compound 3.16 µM): 51.6%
- viability, T/C (second compound 100 µM, first compound 10 µM): 39.3%
